In PMC6891570, “Yuccalechins A–C from the Yucca schidigera Roezl ex Ortgies Bark: Elucidation of the Relative and Absolute Configurations of Three New Spirobiflavonoids and Their Cholinesterase Inhibitory Activities” (Molecules, 2019):
Where two headings read alike, the source gives them in different places.

How the values were obtained:
[1] = target: T1, horse serum BChE (EC 3.1.1.8) (Equus caballus, UniProt P81908); test: BChE inhibition, modified Ellman's spectrophotometric assay; assay type: biochemical; conditions: for inhibition at 1000 µM: read-out: Inhibition (% ± S.D.) BChE
T1 construct: horse serum BChE (EC 3.1.1.8, Sigma, St. Louis, MO, USA) were used as the enzyme sources; purchased Sigma, St. Louis, MO, USA; host or cells: horse serum
T1 sequence (P81908 whole entry): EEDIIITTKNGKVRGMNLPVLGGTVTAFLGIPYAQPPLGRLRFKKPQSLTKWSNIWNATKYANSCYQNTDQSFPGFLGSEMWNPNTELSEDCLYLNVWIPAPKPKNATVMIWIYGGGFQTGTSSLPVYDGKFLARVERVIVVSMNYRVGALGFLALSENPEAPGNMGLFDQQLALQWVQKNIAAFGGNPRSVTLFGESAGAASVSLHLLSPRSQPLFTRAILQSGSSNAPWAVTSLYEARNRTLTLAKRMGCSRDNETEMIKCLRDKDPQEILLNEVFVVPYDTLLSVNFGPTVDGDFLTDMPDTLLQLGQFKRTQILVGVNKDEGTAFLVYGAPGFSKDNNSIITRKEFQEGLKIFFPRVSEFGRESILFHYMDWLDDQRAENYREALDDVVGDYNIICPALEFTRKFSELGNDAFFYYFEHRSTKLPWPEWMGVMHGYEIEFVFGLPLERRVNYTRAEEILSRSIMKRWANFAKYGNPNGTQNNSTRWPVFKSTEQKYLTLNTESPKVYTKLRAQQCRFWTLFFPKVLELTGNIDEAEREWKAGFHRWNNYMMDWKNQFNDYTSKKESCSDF
Method: (§1) The modified Ellman’s assay was used to measure the anti-acetylcholinesterase and anti-butyrylcholinesterase activities of 13, 26, and 29 [81, 82].
(§2) AChE and BChE inhibitory activities were measured by a slightly modified spectrophotometric method of Ellman et al.. Electric eel AChE (Type-VI-S, EC 3.1.1.7, Sigma, St. Louis, MO, USA) and horse serum BChE (EC 3.1.1.8, Sigma, St. Louis, MO, USA) were used as the enzyme sources, while acetylthiocholine iodide and butyrylthiocholine chloride (Sigma, St. Louis, MO, USA) were employed as the substrates of the reaction. 5,5′-Dithio-bis(2-nitrobenzoic) acid (DTNB, Sigma, St. Louis, MO, USA) was used to measure the anticholinesterase activity as the coloring agent. All reagents and conditions were exactly the same as described in our previous publication. Hydrolysis of acetylthiocholine iodide/butyrylthiocholine chloride was monitored by the formation of the yellow 5-thio-2-nitrobenzoate anion, as a result of the reaction of DTNB with thiocholines, catalyzed by enzymes at 412 nm utilizing a 96-well microplate reader (VersaMax Molecular Devices, USA). The measurements and calculations were evaluated by using Softmax PRO 4.3.2.LS software. The percent inhibitions of AChE/BChE were determined by comparing the reaction rates of the samples relative to a blank sample (ethanol in phosphate buffer pH = 8), using the formula (E − S)/E × 100, where E is the activity of enzyme without test sample, and S is the activity of the enzyme with the test sample. The experiments were conducted in six replicates. Galantamine (Sigma, St. Louis, MO, USA) was used as the reference.

[2] = target: T2, Electric eel AChE (Type-VI-S, EC 3.1.1.7) (Electrophorus electricus, UniProt O42275); test: biochemical; assay type: biochemical; conditions: for inhibition at 1000 µM: at 1000 µM final concentration, six replicates, read-out: Inhibition (% ± S.D.) AChE
T2 construct: purchased Sigma, St. Louis, MO, USA Type-VI-S (catalogue number not given)
T2 sequence (O42275 24-633): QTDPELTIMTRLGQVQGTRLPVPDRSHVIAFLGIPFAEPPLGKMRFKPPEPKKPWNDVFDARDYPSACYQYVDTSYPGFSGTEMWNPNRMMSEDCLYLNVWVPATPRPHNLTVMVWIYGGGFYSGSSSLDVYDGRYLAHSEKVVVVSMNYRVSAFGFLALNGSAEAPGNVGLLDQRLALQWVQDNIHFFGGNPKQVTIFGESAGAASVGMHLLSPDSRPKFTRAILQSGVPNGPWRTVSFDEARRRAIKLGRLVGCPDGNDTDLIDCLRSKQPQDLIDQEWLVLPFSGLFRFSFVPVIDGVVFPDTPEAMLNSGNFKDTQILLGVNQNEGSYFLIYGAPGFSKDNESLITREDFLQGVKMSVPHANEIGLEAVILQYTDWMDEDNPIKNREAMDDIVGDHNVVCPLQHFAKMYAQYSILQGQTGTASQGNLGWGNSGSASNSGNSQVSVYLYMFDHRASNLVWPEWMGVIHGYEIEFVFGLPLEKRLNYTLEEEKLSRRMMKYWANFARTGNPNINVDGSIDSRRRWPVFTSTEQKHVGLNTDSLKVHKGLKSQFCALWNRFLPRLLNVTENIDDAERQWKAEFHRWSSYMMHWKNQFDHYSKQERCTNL
Method: as §1, §2

AChE/BChE = conditions: previous results; cited from earlier work
[3] = at 1000 µM final concentration, six replicates

| Structure (SMILES) | activity against BChE (in words) [1] | inhibition at 1000 µM [1, 3] | activity against AChE (in words) [2] | inhibition at 1000 µM [2] | cholinesterase inhibitory activity (in words) (AChE/BChE) | IC50 [2] | inhibition at 1000 µM [1] |
| --- | --- | --- | --- | --- | --- | --- | --- |
| COc1c(O)cc(/C=C/c2cc(O)cc(O)c2)cc1O [Compound 13, trans-3,3′,5,5′-tetrahydroxy-4′-methoxystilbene] | almost inactive | 25.2 ± 2.58% | almost inactive | 19.3 ± 3.03% | – | – | – |
| Oc1ccc(/C=C/c2cc(O)cc(O)c2)cc1 [Compound 21, Trans-resveratrol] | – | – | – | – | very weak activity | – | – |
| O=C1Oc2cc(O)c3c(c2C12c1c(O)cc(O)cc1OC2c1ccc(O)cc1)OC(c1ccc(O)cc1)C(O)C3 [Compound 26, (2S,2′R,3R,3′S)-3′,4,5′,6-tetrahydroxy-2,2′-bis(4-hydroxyphenyl)-3′,4′-dihydro-2H,2′H,8′H-spiro[benzofuran-3,9′-furo.[2,3-h]chromen]-8′-one] | – | 48.5 ± 2.29% | very low and selective activities | 80.5 ± 1.22% | – | 294 µM | – |
| O=C1Oc2cc(O)c3c(c2[C@]12c1c(O)cc(O)cc1O[C@H]2c1ccc(O)cc1)O[C@H](c1ccc(O)cc1)[C@@H](O)C3 [Compound 29, (2S,2′R,3S,3′S)-3′,4,5′,6-tetrahydroxy-2,2′-bis(4-hydroxyphenyl)-3′,4′-dihydro-2H,2′H,8′H-spiro[benzofuran-3,9′-furo[2,3-h]chromen]-8′-one] | – | 33.4 ± 1.37% | very low and selective activities | 52.5 ± 2.6% | – | 655 µM | – |
| COc1ccc2c3c1O[C@H]1C[C@@H](O)C=C[C@@]31CCN(C)C2 [Reference, Galantamine HBr, reference compound] | – | – | – | – | – | – | 91.5 ± 1.63% |
| Oc1cc(O)cc(/C=C/c2ccc(O)c(O)c2)c1 [piceatannol, trans-3,3′,4′,5-tetrahydroxystilbene, reference compound] | – | – | – | – | much higher, selective against BChE, activity | – | – |
